Several values for one entry are separate records, joined by “and”; a condition that tells them apart may be missing. Equal values may be shown once. Read-outs that look alike come from different tables or passages of the source.
How the values were obtained:
NucL = format: biochemical, Streptomyces sp. MBE174; details: for effect of the chemical substance on NucL activity (in words): summary of Table 3
Description: (§1) In this case, 1 U represents an amount of enzymes necessary to increase the absorbancy of 260 nm by one for 30 minutes when the enzymes works on the following as substrate: Salmon sperm DNA 1 mg/mL (manufactured by Invitrogen; Cat no. 15632-011).
(§2) NucS and NucL were kept in contact with the compounds listed in Table 3 on an ice bath for one hour, and then, the enzyme activity was measured by the standard specific activity measurement method (referring to Table 3). […] Incidentally, poorly water-soluble compounds were dissolved in dimethyl sulfoxide, and then added to an enzyme solution. The final concentration of dimethyl sulfoxide after addition was 5 percent. The activity in the presence of 5 percent of dimethyl sulfoxide was regarded as being 100 percent.

NucS = format: biochemical, Streptomyces sp. MBE174
Description: as §1, §2

Salmon sperm DNA = experiment: standard specific activity measurement method (increase of absorbancy at 260 nm); format: biochemical; details: fraction after each purification step of NucS (Table 1)
Description: The specific activity of NucS was measured at 37 degrees Celsius in 20 mM of Tris/HCl at pH 8.5 that contains 1 mM of MgCl2 and 1 mM of CaCl2 (a measurement method under the condition described here is also referred to as a standard specific activity measurement method, hereinafter); the specific activity was 3.6×10^6 U/mg-protein, which was a very high level of specific activity. In this case, 1 U represents an amount of enzymes necessary to increase the absorbancy of 260 nm by one for 30 minutes when the enzymes works on the following as substrate: Salmon sperm DNA 1 mg/mL (manufactured by Invitrogen; Cat no. 15632-011). As a reference, as for NucS, when the specific activity of Benzonase (Registered Trademark), which was a commercially available nucleolytic enzyme that had the highest specific activity among those listed in a brochure, was measured under the conditions described in the brochure (37 degrees Celsius) with the use of the same substrate; the specific activity was 9.4×10^5 U/mg-protein. As a result, it became clear that the specific activity of NucS is about 3.8 times higher than that of Benzonase.
The specific activity of NucL was 5.6×10^4 U/mg-protein at 37 degrees Celsius in 20 mM of Tris/HCl at pH 8.5 that contains 1 mM of MgCl2 and 1 mM of CaCl2. The isoelectric point was measured by using Novex (Registered Trademark) IEF pH-3-10 gel (manufactured by Invitrogen); and then pl was 7.0. Then, it was determined that a N-terminal amino acid sequence of the purified enzyme was DSVRIHDIQGTTR. The sequence matched 12 out of 13 amino acids of putative protein (putative secreted hydrolase) coded on a genome of Streptomyces scabiei 87.22, and of putative protein (large secreted protein) coded on a genome of S. avermitilis MA-4680.

[1] = chemical at 0.1%, contact on ice bath one hour, additive-free = 100
[2] = chemical at 1.0%, contact on ice bath one hour, additive-free = 100
[3] = chemical at 1.0 mM, contact on ice bath one hour, additive-free = 100
[4] = chemical at 5.0 mM, contact on ice bath one hour, additive-free = 100
[5] = chemical at 10.0%, contact on ice bath one hour, additive-free = 100
[6] = chemical at 20.0%, contact on ice bath one hour, additive-free = 100
[7] = chemical at 0.1 mM, contact on ice bath one hour, additive-free = 100
[8] = chemical at 2.0M, contact on ice bath one hour, additive-free = 100
[9] = chemical at 4.0M, contact on ice bath one hour, additive-free = 100
[10] = chemical at 6.0M, contact on ice bath one hour, additive-free = 100

Compound: Triton X
- Relative activity of NucL (%) (NucL; [1]): 137%
- Relative activity of NucL (%) (NucL; [2]): 128%
- Relative activity of NucS (%) (NucS; [1]): 115%
- Relative activity of NucS (%) (NucS; [2]): 108%

Compound: O[C@H](CS)[C@H](O)CS (racemic) [Dithiothreitol]
- Relative activity of NucL (%) (NucL; [3]): 89%
- Relative activity of NucL (%) (NucL; [4]): 89%
- Relative activity of NucS (%) (NucS; [3]): 105%
- Relative activity of NucS (%) (NucS; [4]): 104%

Compound: O=S(=O)(F)Cc1ccccc1 [Phenylmethanesulfonyl fluoride]
- Relative activity of NucL (%) (NucL; [3]): 111%
- Relative activity of NucL (%) (NucL; [4]): 99%
- Relative activity of NucS (%) (NucS; [3]): 85%
- Relative activity of NucS (%) (NucS; [4]): 87%

Compound: CCCCCCCCCCCCOS(=O)(=O)[O-].[Na+] [SDS]
- Relative activity of NucL (%) (NucL; [1]): 89%
- Relative activity of NucL (%) (NucL; [2]): 121%
- effect of the chemical substance on NucL activity (in words) (NucL): high resistance
- Relative activity of NucS (%) (NucS; [1]): 85%
- Relative activity of NucS (%) (NucS; [2]): 0%

Compound: O=C(O)CI [Iodoacetic acid]
- Relative activity of NucL (%) (NucL): 102% and 97%
- Relative activity of NucS (%) (NucS): 103% and 96%

Compound: CN(C)C=O [Dimethyl formamide]
- Relative activity of NucL (%) (NucL; [2]): 99%
- Relative activity of NucL (%) (NucL; [5]): 74%
- Relative activity of NucL (%) (NucL; [6]): 56%
- Relative activity of NucS (%) (NucS; [2]): 91%
- Relative activity of NucS (%) (NucS; [5]): 118%
- Relative activity of NucS (%) (NucS; [6]): 117%
- effect of the chemical substance on NucS activity (in words) (NucS; summary of Table 3): high resistance

Compound: Hydroxyapatite
- Specific activity (U/mg) (Salmon sperm DNA): 38596 U/mg

Compound: [Cl][Cu][Cl] [CuCl2]
- Relative activity of NucL (%) (NucL; [7]): 96%
- Relative activity of NucL (%) (NucL; [3]): 9%
- effect of the chemical substance on NucL activity (in words) (NucL): strongly inhibited
- Relative activity of NucS (%) (NucS; [7]): 111%
- Relative activity of NucS (%) (NucS; [3]): 3%
- effect of the chemical substance on NucS activity (in words) (NucS; summary of Table 3): strongly inhibited

Compound: O=C(O)CN(CCN(CC(=O)O)CC(=O)O)CC(=O)O [Ethylenediaminetetraacetic acid]
- Relative activity of NucL (%) (NucL; [4]): 0%
- Relative activity of NucL (%) (NucL; chemical at 10.0 mM, contact on ice bath one hour, additive-free = 100): 0%
- effect of the chemical substance on NucL activity (in words) (NucL): strongly inhibited
- Relative activity of NucS (%) (NucS): 0%
- effect of the chemical substance on NucS activity (in words) (NucS): strongly inhibited

Compound: OCCS [Melcaptoethanol]
- Relative activity of NucL (%) (NucL; [3]): 89%
- Relative activity of NucL (%) (NucL; [4]): 92%
- Relative activity of NucS (%) (NucS; [3]): 112%
- Relative activity of NucS (%) (NucS; [4]): 116%

Compound: NC(N)=O [Urea]
- Relative activity of NucL (%) (NucL; [8]): 64%
- Relative activity of NucL (%) (NucL; [9]): 55%
- Relative activity of NucL (%) (NucL; [10]): 43%
- Relative activity of NucS (%) (NucS; [8]): 125%
- Relative activity of NucS (%) (NucS; [9]): 126%
- Relative activity of NucS (%) (NucS; [10]): 92%

Compound: C[S+](C)[O-] [Dimethyl sulfoxide]
- Relative activity of NucL (%) (NucL; [2]): 105%
- Relative activity of NucL (%) (NucL; [5]): 75%
- Relative activity of NucL (%) (NucL; [6]): 40%
- Relative activity of NucS (%) (NucS; [2]): 110%
- Relative activity of NucS (%) (NucS; [5]): 116%
- Relative activity of NucS (%) (NucS; [6]): 113%
- effect of the chemical substance on NucS activity (in words) (NucS; summary of Table 3): high resistance

Compound: [Cl-].[Cl-].[Zn+2] [ZnCl2]
- Relative activity of NucL (%) (NucL; [7]): 1%
- Relative activity of NucL (%) (NucL; [3]): 0%
- effect of the chemical substance on NucL activity (in words) (NucL): strongly inhibited
- Relative activity of NucS (%) (NucS; [7]): 3%
- Relative activity of NucS (%) (NucS; [3]): 0%
- effect of the chemical substance on NucS activity (in words) (NucS; summary of Table 3): strongly inhibited

Compound: O=C(O)c1cc[c]([Hg][Cl])cc1 [Parachloro mercury benzoate]
- Relative activity of NucL (%) (NucL; [7]): 108%
- Relative activity of NucL (%) (NucL; [3]): 91%
- Relative activity of NucS (%) (NucS; [7]): 92%
- Relative activity of NucS (%) (NucS; [3]): 94%
